Values of other authors in patent US8614315B2, “Cefdinir and cefixime formulations and uses thereof” (priority 2010, dated 2013).

How the values were obtained:
[1] = pH 3.2, room temperature
[2] = not given; remark: listed apart in the source

| Structure (SMILES) | solubility in water, methanol, ethanol, acetone and many other organic solvents | solubility in a solution with a pH value of 3.2 [1] [mg/mL] | solubility in ethanol and acetone ([2]; ethanol, acetone) | solubility in ether, ethyl acetate, hexane and water ([2]; ether, ethyl acetate, hexane, water) | solubility in methanol and propylene glycol ([2]; methanol, propylene glycol) |
| --- | --- | --- | --- | --- | --- |
| C=CC1=C(C(=O)O)N2C(=O)[C@@H](NC(=O)/C(=N\O)c3csc(N)n3)[C@H]2SC1 [Cefdinir, (6R,7R)-7-[[(2Z)-(2-amino-4-thiazolyl)(hydroxyimino)acetyl]amino]-3-ethenyl-8-oxo-5-thia-1-azabicyclo[4.2.0]oct-2-en-2-carboxylic acid] | poor solubility |  |  |  |  |
| C=CC1=C(C(=O)O)N2C(=O)[C@@H](NC(=O)/C(=N\OCC(=O)O)c3csc(N)n3)[C@H]2SC1 [Cefixime, (6R,7R)-7-{[2-(2-amino-1,3-thiazol-4-yl)-2-(carboxymethyloxyimino)acetyl]amino}-3-ethenyl-8-oxo-5-thia-1-azabicyclo [4.2.0]oct-2-en-2-carboxylic acid] |  | 0.5 | partially soluble | does not dissolve | freely soluble |
